Consider nine compounds from PMC6245549 (Journal of medicinal chemistry, 2018).

The subject of data set [1] is kinases. The following applies: 100 nM; no reference given; cited from earlier work.
Data set [2] concerns the target T1, BRD4(1) (Homo sapiens, UniProt O60885). Put plainly: Protein-observed fluorine NMR. The format is binding.
The subject of data set [3] is A549-NF-κB-luc cells. Put plainly: NF-κB luciferase reporter assay.
In data set [4] the target is BRD4 D1 (Homo sapiens, UniProt O60885). The data set can be described thus: ALPHAScreen, BRD4 D1. For orientation: Bead proximity is the source of the signal in Alpha formats.
Data set [5] deals with BRDT(1) (Homo sapiens, UniProt Q58F21). Put plainly: Protein-observed fluorine NMR. The format is binding. The note with it: 50 μM 19F-labeled protein, W50.
Data set [6] deals with BPTF (Homo sapiens, UniProt Q12830). The data set can be described thus: Protein-observed fluorine NMR. Format: binding.
For data set [7], the system named is yeast GCN5-like malarial protein (pfGCN5). The data set can be described thus: Protein-observed fluorine NMR. The format is binding.
Data set [8] deals with BET D2s. The data set can be described thus: DiscoverX bromodomain-selectivity profiling, BET D2s. The format is binding, human. The note with it: 10 μM.
In data set [9] the target is T2, p38α (Homo sapiens, UniProt Q16539). The data set can be described thus: DiscoverX kinase-selectivity profiling, p38α. The format is binding. The following applies: 1 μM, DiscoverX platform.
The target of data set [10] is p38β (Homo sapiens, UniProt Q15759). The data set can be described thus: DiscoverX kinase-selectivity profiling, p38β. Format: binding. The note with it: 1 μM, DiscoverX platform.
Data set [11] deals with T2, p38α. The data set can be described thus: Cellular thermal-shift assay. The format is cell-based. The following applies: A549 cells, isothermal denaturation, dose-dependent.
For data set [12], the system named is c-Myc. The data set can be described thus: Western blot of c-Myc levels in MM.1S cells. The format is cell-based. The following applies: 6 h, concentrations approaching BRD4(1) Kd. Background: Immunoblotting shows a protein as a band on a membrane.
Data set [13] relates to MSK1 phosphorylation at T581. Put plainly: Phosphorylation state of MSK1. The format is cell-based.
The test system of data set [14] is A549 cells. Put plainly: Cytotoxicity toward A549 cells. The format is cell-based.
Data set [15] concerns the target T1, BRD4(1). Put plainly: Fluorescence anisotropy, BRD4.
Data set [16] has as its target BRD4(2) (Homo sapiens, UniProt O60885). Put plainly: Fluorescence anisotropy, BRD4. (Polarisation of emitted light reports the rotation of a fluorescent probe.)
In data set [17] the test system is IL-8. The data set can be described thus: IL-8 ELISA. The note with it: Homo sapiens, read-out: Inhibition of IL-8 cytokine production. Format: cell-based.
Data set [18] has as its system IL-8. The note with it: 20 μM; cited from earlier work.
The target in data set [19] is T1, BRD4(1). Put plainly: Isothermal-titration calorimetry. The format is binding.

Bounds are passed on as bounds.

T2 sequence (Q16539 whole entry): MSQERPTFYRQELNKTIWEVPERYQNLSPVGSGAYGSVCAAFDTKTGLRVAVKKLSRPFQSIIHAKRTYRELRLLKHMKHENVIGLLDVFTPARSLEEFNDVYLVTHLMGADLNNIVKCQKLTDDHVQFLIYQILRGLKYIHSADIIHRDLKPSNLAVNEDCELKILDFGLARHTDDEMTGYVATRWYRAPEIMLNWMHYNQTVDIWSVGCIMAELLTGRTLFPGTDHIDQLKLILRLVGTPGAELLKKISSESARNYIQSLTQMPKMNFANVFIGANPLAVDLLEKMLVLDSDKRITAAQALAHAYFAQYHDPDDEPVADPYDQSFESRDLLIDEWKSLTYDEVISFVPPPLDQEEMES
p38β, sequence (Q15759 whole entry): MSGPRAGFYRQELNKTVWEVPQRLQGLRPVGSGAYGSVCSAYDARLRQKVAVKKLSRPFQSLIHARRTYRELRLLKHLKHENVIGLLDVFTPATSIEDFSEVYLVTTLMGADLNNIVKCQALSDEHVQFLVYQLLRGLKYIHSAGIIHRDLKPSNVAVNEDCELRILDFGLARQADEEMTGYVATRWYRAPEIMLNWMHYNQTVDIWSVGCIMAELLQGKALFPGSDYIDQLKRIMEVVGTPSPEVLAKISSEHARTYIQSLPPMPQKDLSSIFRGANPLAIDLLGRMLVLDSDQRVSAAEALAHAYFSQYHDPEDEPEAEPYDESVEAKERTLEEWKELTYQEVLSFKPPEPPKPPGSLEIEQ

Take `C[S+]([O-])c1ccc(-c2nc(-c3ccc(F)cc3)c(-c3ccncc3)[nH]2)cc1` (centres unmarked) [SB203580]: the Kinase selectivity score in [1] is given as 0.024.
Regarding `Cc1cc(C)cc(Nc2nccc(-c3c(-c4ccc(F)cc4)nnn3C3CCNCC3)n2)c1` [VII, N-(3,5-Dimethylphenyl)-4-(4-(4-fluorophenyl)-1-(piperidin-4-yl)-1H-1,2,3-triazol-5-yl)pyrimidin-2-amine], the “Binding to BRD4(1) by PrOF NMR, in words” value in data set [2] is given as “bound BRD4(1) in a manner similar to that of compound V”.
Take `NC(=O)c1ccc(N(C(N)=O)c2c(F)cccc2F)nc1-c1ccc(F)cc1F` [VX-702]: in data set [3], the “Inhibition in NF-κB reporter assay, in words” value is given as “limited inhibitory effects”.
As to `Cc1cc(C)cc(Nc2nccc(-c3c(C)nnn3C3CCNCC3)n2)c1` [IX, N-(3,5-Dimethylphenyl)-4-(4-methyl-1-(piperidin-4-yl)-1H-1,2,3-triazol-5-yl)pyrimidin-2-amine], in data set [4], the “Enhancement of binding to BRD4(1) relative to VII” value was 20 fold.
For `Cc1cc(C)cc(Nc2nccc(-c3c(-c4ccc(F)cc4)ncn3C3CCNCC3)n2)c1` [Compound V, N-(3,5-Dimethylphenyl)-4-(4-(4-fluorophenyl)-1-(piperidin-4-yl)-1H-imidazol-5-yl)pyrimidin-2-amine], the “Small molecule needed to reach fully bound state of WPF-shelf resonance, BRDT(1)” value in [5] was “approximately 1 equiv”. In addition, in [6], the “Binding to BPTF by PrOF NMR, in words” value is given as “did not detect binding”. Moreover, in [7], the “Binding to GCN5-like malarial protein by PrOF NMR, in words” value was “did not detect binding”. The “Inhibition of BET D2s, DiscoverX” value in data set [8] is given as 7−27%. In data set [9], the “Inhibitory activity against p38α, in words” value is reported as “high inhibitory activity”. Further, the “Inhibitory activity against p38β, in words” value in data set [10] was “high inhibitory activity”. Also, in data set [11], the “Concentration above which p38α is stabilized (CETSA)” value is reported as above 1 nM. The “Expression of c-Myc oncoprotein, in words” value in [12] is given as “inhibited expression”. Also, the “MSK1 phosphorylation at T581, in words” value in [13] is given as “decrease in levels of MSK1 phosphorylation”. Also, in data set [14], the “Concentration up to which cytotoxicity toward A549 cells is minimal” value is at most 10 µM.
For `Fc1ccc(-c2ncn(C3CCNCC3)c2-c2ccnc(Oc3cc(F)cc(F)c3)n2)cc1` [Compound VI, 2-(3,5-Difluorophenoxy)-4-(4-(4-fluorophenyl)-1-(piperidin-4-yl)-1H-imidazol-5-yl)pyrimidine], the “Binding to BRD4(1), in words” value in [15] was “only bound weakly”. Moreover, the “Binding to BRD4(2) / displacement of BI-BODIPY, in words” value in [16] was “only bound weakly”.
A word on the inhibition: it is the relative decrease from the control value, in per cent. For `Cc1sc2c(c1C)C(c1ccc(Cl)cc1)=N[C@@H](CC(=O)OC(C)(C)C)c1nnc(C)n1-2` [(+)-JQ1, reference compound], the “MSK1 phosphorylation at T581, in words” value in [13] is “not observed”. For the same compound, the inhibition at 1 µM in [17] was found to be 63%.
As to `C=C1C(=O)O[C@H]2[C@H]1CC/C(C)=C/CC[C@@]1(C)O[C@@H]21` [parthenolide], in data set [18], the “IL-8 production, in words” value is given as “decreased IL-8 production to baseline”.
With `Cc1ccc(Nc2nccc(-c3c(-c4ccc(F)cc4)ncn3C3CCNCC3)n2)cc1C` [Compound IV, N-(3,4-Dimethylphenyl)-4-(4-(4-fluorophenyl)-1-(piperidin-4-yl)-1H-imidazol-5-yl)pyrimidin-2-amine], the “Entropy of binding in ITC” value in data set [19] is 5.0 cal/mol/°C. For the same compound, the “Expression of c-Myc oncoprotein, in words” value in data set [12] was “inhibited expression”. Also, in [13], the “MSK1 phosphorylation at T581, in words” value is given as “decrease in levels of MSK1 phosphorylation”. In addition, in data set [14], the “Concentration up to which cytotoxicity toward A549 cells is minimal” value is at most 25 µM.
